Test results reported in US10548937B2, “Composition for the treatment of arthropathies and osteoarthritis” (Kolinpharma S.p.A., priority 2014, dated 2020).

Columns and labels:
Assay type in all cases: cell-based
human chondrocytes = assay: MTT test (Test 0), cell vitality; settings: overnight incubation, 'likewise' = did not prove toxic
Description: (§1) Human chondrocytes (Lonza, cat. N. CC-2550) derived from knee tissue were cultured in Chondrocyte Growth Medium (Lonza, cat. N. CC-3216) prepared according to the manufacturer's instructions with the addition of R3-insulin-like growth factor-1 [R3-IGF-1], human recombinant fibroblast growth factor beta [hrFGF-β], transferrin, insulin, foetal bovine serum [FBS] and gentamicin/amphotericin-B [GA]. The cells were maintained in an incubator at 37° C. and 5% CO2 and seeded every 3-4 days at a density of about 1×10^4 cells/cm^2.
(§2) After about 16-20 hours of incubation, the cells were processed for the various tests.
This colorimetric test is based on the transformation of the tetrazolium salt MTT (yellow) into formazan (violet), by the succinate-tetrazolium reductase system, which belongs to the mitochondrial respiratory chain and is active only in metabolically active cells. […] An insoluble colorant forms during this period, which, after dissolving by adding dissolution solution to the samples (10% SDS in 10 mM HCl) and after incubating overnight in an incubator, may be quantified by reading the absorbance of the samples at 595 nm (using 750 nm as reference wavelength). The measured absorbance correlates directly with the number of live cells.
To exclude a possible toxic effect attributable to the chosen incubation protocol, the cell vitality was quantified by means of an MTT test. […]

[1] = tested on: TNFα production by human chondrocytes; assay: ELISA test (Test 1a), TNFα in culture medium
Description: as §1, §2
In the “sandwich” ELISA test, a 96-well plate is covered with a monoclonal antibody specific for a given cytokine. […] The addition of a sulfuric acid solution changes the colour of the solution from blue to yellow, blocking the development of the colour and allowing accurate reading of the absorbance of the samples at 450 nm.
For the purposes of the treatment, the medium was harvested and stored at −80° C. until the time of use for the test. […] The concentrations of cytokines released into the culture medium were then expressed as pg of cytokine/mg of total protein of the sample. […]
Release into the culture medium of the pro-inflammatory cytokines TNFα, IL-6 and IL-8 by the human chondrocytes was evaluated both in the absence and in the presence of stimulation with IL-1β for 16 hours. […]

[2] = tested on: nuclear translocation of NF-kB in human chondrocytes; assay: Nuclear translocation of NF-kB (Test 1b), immunolabelling and confocal microscope; settings: IL-1β about 20 hours
Description: as §1, §2
The chondrocytes were seeded onto 13 mm glass slides and, once they had reached confluence, were incubated overnight with the various treatments. […]
Images of the samples thus prepared were acquired on a confocal microscope (TCS SPE UV, Leica Microsystems) and were analysed with the software ImageJ v1.47h (http://imagej.nih.gov/ij) for the quantification of the nuclear translocation of NF-kB (Noursadeghi M et al., Journal of Immunological Methods, 2008, vol. 329, pages 194-200). […] These masks were then applied to the original NF-kB signals to calculate the fluorescence intensity in the nucleus and in the cytoplasm from the histograms of the intensities created with ImageJ. The mean fluorescence intensity ratio between the nucleus and the cytoplasm was then calculated for each sample.

SMILES	toxicity to chondrocytes (MTT, cell vitality) (human chondrocytes; 100 μM)	effect on the production of TNFα ([1]; 100 μM in the culture medium)	effect on the translocation of NF-kB to the nucleus ([2]; diclofenac 100 μM)	toxicity to chondrocytes (MTT, cell vitality) (human chondrocytes; 10 μM)	effect on the production of TNFα ([1]; 10 μM in the culture medium)	effect on the translocation of NF-kB to the nucleus ([2]; celecoxib 10 μM)
O=C(O)Cc1ccccc1Nc1c(Cl)cccc1Cl [diclofenac]	likewise for the incubation with the positive controls	no effect	no significant effect			
Cc1ccc(-c2cc(C(F)(F)F)nn2-c2ccc(S(N)(=O)=O)cc2)cc1 [celecoxib]				likewise for the incubation with the positive controls	no effect	no significant effect
